From US7695931B2, “Carotenoid hydroxylase gene, method for preparing hydroxylated carotenoid, and novel geranylgeranyl pyrophosphate synthase” (Kirin Holdings Kabushiki Kaisha, priority 2003, dated 2010)

Experiments:
[1] = system: lipid peroxidation in rat brain homogenate; experiment: in vitro anti-peroxidation activity: lipid peroxidation in rat brain homogenate (TBA, A532); type: biochemical; settings: for IC50: concentration halving A532 vs non-addition group, ascorbic acid 100 μM, pH 7.4, 37° C., 1 hr, read-out: IC50 (μM), inhibitory effect on lipid peroxidation in rat brain homogenate; for inhibitory effect on lipid peroxidation (in words): rat brain homogenate, in vitro
Procedure: Although various carotenoids have a wide variety of physiological activities and effects, it is believed that activity to inhibit peroxidation of lipids in the living body caused by oxygen radicals is the basis for all activities/effects. Therefore, in vitro inhibitory effects of the two carotenoids synthesized in Example 14 on lipid peroxidation caused by free radicals were examined using rat brain homogenate. This assay was conducted basically according to the method of Kubo et al. (Kubo, K., Yoshitake, Y., Kumada, K., Shuto K., Nakamizo, N. “Radical scavenging action of flunarizine in rat brain in vitro”. Arch. Int. Pharmacodyn. Ther. 272, 283-295, 1984). Briefly, 0.05 ml of methanol solution of a test sample, 0.1 ml of 1 mM ascorbic acid (final concentration 100 μM) and 0.05 ml of H2O were added to 0.6 ml of 100 mM phosphate buffer (pH 7.4) and pre-incubated at 37° C. for 5 min. Then, 0.2 ml of 2.5% (w/v) rat brain homogenate was added thereto to start reaction, followed by incubation at 37° C. for 1 hr under shaking. One milliliter of a mixed solution containing 20% (w/v) trichloroacetic acid, 0.5% (w/v) 2-thiobarbituric acid and 0.2 N HCl was added to the above reaction solution to terminate the reaction. The resultant solution was boiled at 100 ° C. for 30 min for color development. After cooling, the solution was centrifuged at 3000 rpm for 5 min. Absorbance at 532 nm (A532) of the resultant supernatant was measured. The concentration of test sample which is required to decrease the A532 of test sample addition group to one half of the A532 of test sample non-addition group was calculated as IC50. This value was taken as lipid peroxidation inhibitory effect in rat brain homogenate.

lung cancer = settings: cited from earlier work; for incidence of lung cancer: carotenoid-administered mice, incidence in control mice without carotenoid administration taken as 100%
liver cancer = settings: carotenoid-administered mice; incidence in control mice without carotenoid administration taken as 100%; cited from earlier work
skin cancer = settings: carotenoid-administered mice; incidence in control mice without carotenoid administration taken as 100%; cited from earlier work
[2] = compared with β-carotene; cited from earlier work

CC1=C(/C=C/C(C)=C/C=C/C(C)=C/C=C/C=C(C)/C=C/C=C(C)/C=C/C2=C(C)C(=O)CC(O)C2(C)C)C(C)(C)C(O)CC1=O (single isomer, unassigned) [2,2′-Dihydroxycanthaxanthin, 2,2′-dihydroxy-β,β-carotene-4,4′-dione]
IC50 [1]: 4.8 µM
inhibitory effect on lipid peroxidation (in words) [1]: strong inhibitory effects on lipid peroxidation

CC1=C(/C=C/C(C)=C/C=C/C(C)=C/C=C/C=C(C)/C=C/C=C(C)/C=C/C2=C(C)C(=O)CC(O)C2(C)C)C(C)(C)CCC1=O (single isomer, unassigned) [2-Hydroxycanthaxanthin, 2-hydroxy-β,β-carotene-4,4′-dione]
IC50 [1]: 8.1 µM
inhibitory effect on lipid peroxidation (in words) [1]: strong inhibitory effects on lipid peroxidation

CC1=C(/C=C/C(C)=C/C=C/C(C)=C/C=C/C=C(C)/C=C/C=C(C)/C=C/C2=C(C)C(=O)CCC2(C)C)C(C)(C)CCC1=O [Canthaxanthin]
IC50 [1]: 50 µM

CC1=C(/C=C/C(C)=C/C=C/C(C)=C/C=C/C=C(C)/C=C/C=C(C)/C=C/C2=C(C)C(=O)[C@@H](O)CC2(C)C)C(C)(C)C[C@H](O)C1=O [astaxanthin]
incidence of lung cancer (lung cancer): 70%
incidence of liver cancer (liver cancer): 30%
incidence of skin cancer (skin cancer): 100%

CC1=C[C@H](O)CC(C)(C)[C@H]1/C=C/C(C)=C/C=C/C(C)=C/C=C/C=C(C)/C=C/C=C(C)/C=C/C1=C(C)C[C@@H](O)CC1(C)C [lutein]
incidence of lung cancer (lung cancer): 70%
incidence of liver cancer (liver cancer): 50%

CC(C)=CCC/C(C)=C/C=C/C(C)=C/C=C/C(C)=C/C=C/C=C(C)/C=C/C=C(C)/C=C/C=C(\C)CCC=C(C)C [lycopene]
inhibition of lung cancer (in words) (lung cancer; comparison of the three carcinogenesis models): highly effective in inhibiting lung cancer
incidence of liver cancer (liver cancer): 100%
incidence of skin cancer (skin cancer): 10%

CC1=CCCC(C)(C)C1/C=C/C(C)=C/C=C/C(C)=C/C=C/C=C(C)/C=C/C=C(C)/C=C/C1=C(C)CCCC1(C)C (stereo not drawn) [α-carotene]
incidence of lung cancer (lung cancer): 40%
incidence of liver cancer (liver cancer): 50%

CC1=C(/C=C/C(C)=C/C=C/C(C)=C/C=C/C=C(C)/C=C/C=C(C)/C=C/C2=C(C)CCCC2(C)C)C(C)(C)CCC1 [β-Carotene, β-carotene]
IC50 [1]: > 100 µM
incidence of lung cancer (lung cancer): 139%
incidence of liver cancer (liver cancer): 70%

CC1=C(/C=C/C(C)=C/C=C/C(C)=C/C=C/C=C(C)/C=C/C=C(C)/C=C/C2=C(C)C[C@@H](O)CC2(C)C)C(C)(C)CCC1 [β-cryptoxanthin]
intake ratio into the living body relative to β-carotene [2]: 10 times

fucoxanthin
incidence of liver cancer (liver cancer): 30%
incidence of skin cancer (skin cancer): 10%
